15 compounds from patent US20220041606A1, “POSITIVE ALLOSTERIC MODULATORS OF THE MUSCARINIC ACETYLCHOLINE RECEPTOR M1” (Vanderbilt University, priority 2020, published 2022) can be followed below.

Test [1] addresses T1, human mAChR M1 (Homo sapiens, UniProt P11229).
T1 construct: host or cells: CHO-K1 cells (ATCC), stably transfected using Lipofectamine2000
T1 sequence (P11229 1-460): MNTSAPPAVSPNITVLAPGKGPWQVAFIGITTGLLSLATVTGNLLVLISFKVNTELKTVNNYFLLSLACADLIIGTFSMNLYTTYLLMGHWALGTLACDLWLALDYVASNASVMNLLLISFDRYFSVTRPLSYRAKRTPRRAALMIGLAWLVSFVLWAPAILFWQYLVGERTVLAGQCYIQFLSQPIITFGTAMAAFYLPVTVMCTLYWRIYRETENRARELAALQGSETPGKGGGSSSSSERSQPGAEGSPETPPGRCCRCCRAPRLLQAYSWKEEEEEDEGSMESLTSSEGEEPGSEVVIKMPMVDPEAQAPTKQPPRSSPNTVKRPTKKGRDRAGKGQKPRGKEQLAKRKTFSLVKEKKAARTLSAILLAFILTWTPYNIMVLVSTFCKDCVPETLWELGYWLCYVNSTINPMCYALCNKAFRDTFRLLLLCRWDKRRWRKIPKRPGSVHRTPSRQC
As to the kind of experiment: mAChR M1 cell-based functional assay (calcium mobilization), PAM activity: increase in the EC20 acetylcholine response. To be noted: CHO-K1 cells expressing hM1; potentiation of EC20 acetylcholine response. An outline of the steps:
(§1)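 CHO-K1 cells stably expressing hM1, loaded with Fluo-4 AM; calcium flux read on FDSS 6000. Compound (11-point, 1:3 CRC) added at 4 s, EC20 acetylcholine at 144 s, EC80 at 230 s; agonism from response to compound alone, PAM from increase in EC20 response; Emax relative to acetylcholine maximum, four-parameter fit.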
A general note: Calcium flux is commonly read through the fluorescence of an indicator in the cells.

The target of test [2] is T1, human mAChR M1. As to the kind of experiment: mAChR M1 cell-based functional assay (calcium mobilization), agonist activity upon compound addition. To be noted: CHO-K1 cells expressing hM1; for EC50: compound alone, before acetylcholine addition; for Emax: relative to the maximum for acetylcholine. An outline of the steps:
as §1

`Cn1cc(-c2ccc(Cn3cc(C(=O)N[C@H]4CCOC[C@@H]4O)c4ncccc4c3=O)c(F)c2)cn1` [Compound A6, 6-(2-fluoro-4-(1-methyl-1H-pyrazol-4-yl)benzyl)-N-((3R,4S)-3-hydroxytetrahydro-2H-pyran-4-yl)-5-oxo-5,6-dihydro-1,6-naphthyridine-8-carboxamide]: the EC50 in test [1] was found to be 0.22 µM; in test [2], 8.2 µM. Further, the results for the Emax in test [1] and in test [2] were 89% and 23%, respectively.
In the same order, the values of `Cn1cc(-c2ccc(Cn3cc(C(=O)N[C@H]4CCCC[C@@H]4O)c4ncncc4c3=O)c(F)c2)cn1` [Compound A89, 6-(2-fluoro-4-(1-methyl-1H-pyrazol-4-yl)benzyl)-N-((1S,2S)-2-hydroxycyclohexyl)-5-oxo-5,6-dihydropyrido[4,3-d]pyrimidine-8-carboxamide] are ≥ 10 µM, > 10 µM, 51% and < 5%.
Take `Cn1cc2c(-c3cc(F)c(Cn4cc(C(=O)N[C@H]5CCCCC[C@@H]5O)c5occc5c4=O)c(F)c3)cccc2n1` [Compound D22, 5-(2,6-difluoro-4-(2-methyl-2H-indazol-4-yl)benzyl)-N-((1S,2S)-2-hydroxycycloheptyl)-4-oxo-4,5-dihydrofuro[3,2-c]pyridine-7-carboxamide]: in test [1], the EC50 was found to be 0.95 µM and the Emax is 81%. Further, in test [2], the EC50 was > 10 µM and the Emax was 9%.
As to `O=C(N[C@H]1CCOC[C@@H]1O)c1cn(Cc2c(F)cc(-c3cncs3)cc2F)c(=O)c2cccnc12` [Compound A49, 6-(2,6-Difluoro-4-(thiazol-5-yl)benzyl)-N-((3R,4S)-3-hydroxytetrahydro-2H-pyran-4-yl)-5-oxo-5,6-dihydro-1,6-naphthyridine-8-carboxamide], in test [1], the EC50 came out at 0.98 µM and the Emax came out at 65%. Besides, in test [2], the EC50 is > 10 µM and the Emax was < 5%.
For `Cn1cc2c(-c3cc(F)c(Cn4cc(C(=O)N[C@H]5CCCC[C@@H]5O)c5occc5c4=O)c(F)c3)cccc2n1` [Compound D19, 5-(2,6-difluoro-4-(2-methyl-2H-indazol-4-yl)benzyl)-N-((1S,2S)-2-hydroxycyclohexyl)-4-oxo-4,5-dihydrofuro[3,2-c]pyridine-7-carboxamide], in that order: 0.43 µM, 82%, > 10 µM and 9%.
`CC1(C)COCCC1NC(=O)c1cn(Cc2ccc(-n3cccn3)cc2)c(=O)c2ccoc12` (centres unmarked) [Compound D1, 5-(4-(1H-pyrazol-1-yl)benzyl)-N-(3,3-dimethyltetrahydro-2H-pyran-4-yl)-4-oxo-4,5-dihydrofuro[3,2-c]pyridine-7-carboxamide]: in test [1], the EC50 is > 10 µM and the Emax came out at 25%. In test [2], the EC50 is > 10 µM and the Emax was < 5%.
With `COc1cc(-c2cc(F)c(Cn3cc(C(=O)N[C@H]4CCOC[C@@H]4O)c4ncccc4c3=O)c(F)c2)ccc1Cl` [Compound A39, 6-((4′-chloro-3,5-difluoro-3′-methoxy-[1,1′-biphenyl]-4-yl)methyl)-N-((3R,4S)-3-hydroxytetrahydro-2H-pyran-4-yl)-5-oxo-5,6-dihydro-1,6-naphthyridine-8-carboxamide], in test [1], the EC50 was ≥ 10 µM and the Emax stood at 41%. In test [2], the EC50 is > 10 µM and the maximum response (Emax) was < 5%.
For `Cn1cc(-c2ccc(Cn3cc(C(=O)N[C@H]4CCCCC[C@@H]4O)c4ncccc4c3=O)c(F)c2)cn1` [Compound A24, 6-(2-fluoro-4-(1-methyl-1H-pyrazol-4-yl)benzyl)-N-((1S,2S)-2-hydroxycycloheptyl)-5-oxo-5,6-dihydro-1,6-naphthyridine-8-carboxamide], in that order: 0.35 µM, 69%, 6.12 µM and 16%.
Take `Cn1cc(-c2ccc(Cn3cc(C(=O)NC4CC5(COC5)C4)c4occc4c3=O)c(F)c2)cn1` [Compound D17, 5-(2-fluoro-4-(1-methyl-1H-pyrazol-4-yl)benzyl)-4-oxo-N-(2-oxaspiro[3.3]heptan-6-yl)-4,5-dihydrofuro[3,2-c]pyridine-7-carboxamide]: in test [1], the EC50 was > 10 µM and the Emax came out at 40%. In test [2], the EC50 was > 10 µM and the Emax was < 5%.
Turning to `O=C(N[C@H]1CCOC[C@@H]1O)c1cn(Cc2ccc(-n3cccn3)cc2)c(=O)c2nccnc12` [Compound A56, 6-(4-(1H-pyrazol-1-yl)benzyl)-N-((3R,4S)-3-hydroxytetrahydro-2H-pyran-4-yl)-5-oxo-5,6-dihydropyrido[3,4-b]pyrazine-8-carboxamide], in test [1], the EC50 is ≥ 10 µM and the Emax was 61%. Further, in test [2], the EC50 is > 10 µM and the Emax was < 5%.
In the same order, the values of `Cc1cn2c(=O)n(Cc3ccc(-n4cccn4)cc3)cc(C(=O)N[C@H]3CCOC[C@@H]3O)c2n1` [Compound B27, 6-(4-(1H-pyrazol-1-yl)benzyl)-N-((3R,4S)-3-hydroxytetrahydro-2H-pyran-4-yl)-2-methyl-5-oxo-5,6-dihydroimidazo[1,2-c]pyrimidine-8-carboxamide] are ≥ 10 µM, 30%, > 10 µM and < 5%.
In the same order, the values of `Cn1cc2c(-c3cc(F)c(Cn4cc(C(=O)N[C@H]5CCOC[C@@H]5O)c5ncncc5c4=O)c(F)c3)cccc2n1` [Compound A84, 6-(2,6-difluoro-4-(2-methyl-2H-indazol-4-yl)benzyl)-N-((3R,4S)-3-hydroxytetrahydro-2H-pyran-4-yl)-5-oxo-5,6-dihydropyrido[4,3-d]pyrimidine-8-carboxamide] are ≥ 10 µM, 40%, > 10 µM and < 5%.
In the same order, the values of `Cc1cc(-c2ccc(Cn3cc(C(=O)N[C@H]4CCCC[C@@H]4O)c4ncccc4c3=O)c(F)c2)ccn1` [Compound A27, 6-(2-Fluoro-4-(2-methylpyridin-4-yl)benzyl)-N-((1S,2S)-2-hydroxycyclohexyl)-5-oxo-5,6-dihydro-1,6-naphthyridine-8-carboxamide] are 0.86 µM, 74%, > 10 µM and 6%.
Take `Cn1cc2c(-c3cc(F)c(Cn4cc(C(=O)NC5CCOCC5)c5nccnc5c4=O)c(F)c3)cccc2n1` [Compound A70, 6-(2,6-difluoro-4-(2-methyl-2H-indazol-4-yl)benzyl)-5-oxo-N-(tetrahydro-2H-pyran-4-yl)-5,6-dihydropyrido[3,4-b]pyrazine-8-carboxamide]: in test [1], the EC50 was 5.5 µM and the Emax turned out to be 45%. In test [2], the EC50 is > 10 µM and the maximal effect (Emax) was < 5%.
Take `Cc1cc(-c2ccc(Cn3cc(C(=O)N[C@H]4CCOC[C@@H]4O)c4ncccc4c3=O)c(F)c2)ccn1` [Compound A26, 6-(2-fluoro-4-(2-methylpyridin-4-yl)benzyl)-N-((3R,4S)-3-hydroxytetrahydro-2H-pyran-4-yl)-5-oxo-5,6-dihydro-1,6-naphthyridine-8-carboxamide]: the EC50 in test [1] amounted to 0.49 µM. In addition, the Emax in test [1] is 75%; in test [2], 10%.

Broadly, the EC50 is the concentration at which the effect is half-maximal. What is called Emax is the maximal effect, on the per cent scale that the assay sets.
